Measured values published in patent US8034787B2, “Enzyme-cleavable prodrug compounds” (Medarex, Inc., priority 1998, dated 2011).
Square brackets hold non-standard residues; d marks the D form. Peptide text beside a SMILES is read from it. * marks the point of attachment. Mcc = 7-methoxycoumarin-3-carboxyl, COc1ccc2cc(C(=O)*)c(=O)oc2c1; Sta = CC(C)C[C@H](N)[C@@H](O)CC(=O)O; Isovaleryl = CC(C)CC(=O)*

Legend:
[1] = target: T1, MCF-7/6 cell homogenate trouase (Homo sapiens, UniProt P52888); assay: Inhibition of MCF-7/6 cell homogenate trouase activity; type: biochemical
T1 construct: the cells (approximately 300 μL wet) were homogenized by grinding in 1.7 mL 10 mM pH 7.2 HEPES buffer; endogenous in cells; host or cells: MCF-7/6 (breast carcinoma)

[2] = tested on: LS174T tumor; settings: all dose regimens, Q7D×5
From the text: Statistically significant from vehicle control group: *: p<0.05; **: p<0.01 (unpaired t-test).

[3] = Acute toxicity of N-capped prodrugs, intravenous bolus in mice; type: in vivo; settings: intravenous bolus of 250 mg/kg (Dox-HCl eq.), three to five mice per group
[4] = Single dose Maximum Tolerated Dose (SD-MTD) study
[5] = tested on: MX-1 tumors; type: in vivo, mice
Description: MX-1 tumors which are moderately doxorubicin-sensitive, human breast carcinoma xenografts, were implanted subcutaneously (s.c.) and mice were weighed and tumors were measured (by caliper) at least once a week prior to start of dosing (Day 0), then twice a week during the study. Immediately before the start of dosing (Study Day −2 to Day 0), mice were randomized to various groups based on the weight of the tumors. Mice were euthanized after the tumors reached a cutoff weight of 1.5 g (cancer endpoint). Studies were terminated at Day 60.

[6] = tested on: LS174T tumors; assay: LS174T xenograft, five weekly intravenous doses (Example 17)
[7] = target: T2, HeLa cell trouase (F1) (Homo sapiens, UniProt P52888); assay: Rates of hydrolysis by partially purified HeLa cell trouase (F1); type: biochemical; settings: 10 μg/mL substrate, pH 7.2 10 mM HEPES, 100 μM MnCl2, 37° C.; Suc-βAla-Leu-Ala-Leu-Dox = 1.0
T2 construct: The fractions containing the highest activity levels were pooled (fractions #43-46); host or cells: HeLa

[8] = target: T3, recombinant rat TOP (rRTOP) (Rattus norvegicus, UniProt P24155); assay: Rates of hydrolysis by recombinant rat TOP; type: biochemical; settings: for Rate of hydrolysis TOP: 10 μg/mL substrate, pH 7.2 10 mM HEPES, 100 μM MnCl2, 37° C., Suc-βAla-Leu-Ala-Leu-Dox = 1.0
T3 construct: made in house; host or cells: E. coli

[9] = tested on: Porcine Kidney CD10; assay: Hydrolysis by purified CD10; type: biochemical; settings: 12.5 μg/mL, 37° C., pH 7.4, 10 hr
[10] = tested on: HL-60 cells; assay: 3H-thymidine incorporation proliferation assay; type: cell-based; settings: 24 hours
Description: Promyelocytic leukemia cells, HL-60, were cultured in RPMI media containing 10% heat inactivated fetal calf serum (FCS). On the day of the study, the cells were collected, washed and resuspended at a concentration of 0.5×10^6 cells/ml in RPMI containing 10% FCS. 100 μl/well of cell suspension was added to 96 well plates. […] Finally, 10 μl of a 100 μCi/ml ^3H-thymidine was added per well and the plates were incubated for 24 hours. The plates were harvested using a 96 well Harvester (Packard Instruments) and counted on a Packard Top Count counter. Four parameter logistic curves were fitted to the ^3H-thymidine incorporation as a function of drug molarity using Prism software to determine IC50 values.

[11] = target: T4, MCF-7/6 cell conditioned media trouase (Homo sapiens, UniProt P52888); assay: Thiol activation of MCF-7/6 conditioned medium; type: biochemical; settings: 1 mM DTT, 30 minutes pre-incubation
T4 construct: MCF-7/6 conditioned medium was pre-incubated for 30 minutes at room temperature with dithiothreitol (DTT); endogenous in cells; host or cells: MCF-7/6 conditioned medium

[12] = target: T5, HeLa cell Fraction 1 trouase (Homo sapiens, UniProt P52888); assay: Inhibition of Suc-βAla-Leu-Ala-Leu-Dox hydrolysis by HeLa cell Fraction 1; type: biochemical; settings: 3 μM
T5 construct: The fractions containing the highest activity levels were pooled (fractions #43-46); host or cells: HeLa

[13] = target: T6, partially purified trouase preparation (Homo sapiens, UniProt P52888); assay: Extent of cleavage by partially purified trouase preparation (Example 14); type: biochemical; settings: 12.5 μg/mL, 2 hr, 37° C.
T6 construct: The fractions containing the highest activity levels were pooled (fractions #43-46); host or cells: HeLa

[14] = tested on: MCF 7/6 cell homogenate; assay: Extent of cleavage by cell homogenate (Example 14); type: biochemical, human; settings: 12.5 μg/mL, 2 hr, 37° C.

T3 sequence (P24155 whole entry): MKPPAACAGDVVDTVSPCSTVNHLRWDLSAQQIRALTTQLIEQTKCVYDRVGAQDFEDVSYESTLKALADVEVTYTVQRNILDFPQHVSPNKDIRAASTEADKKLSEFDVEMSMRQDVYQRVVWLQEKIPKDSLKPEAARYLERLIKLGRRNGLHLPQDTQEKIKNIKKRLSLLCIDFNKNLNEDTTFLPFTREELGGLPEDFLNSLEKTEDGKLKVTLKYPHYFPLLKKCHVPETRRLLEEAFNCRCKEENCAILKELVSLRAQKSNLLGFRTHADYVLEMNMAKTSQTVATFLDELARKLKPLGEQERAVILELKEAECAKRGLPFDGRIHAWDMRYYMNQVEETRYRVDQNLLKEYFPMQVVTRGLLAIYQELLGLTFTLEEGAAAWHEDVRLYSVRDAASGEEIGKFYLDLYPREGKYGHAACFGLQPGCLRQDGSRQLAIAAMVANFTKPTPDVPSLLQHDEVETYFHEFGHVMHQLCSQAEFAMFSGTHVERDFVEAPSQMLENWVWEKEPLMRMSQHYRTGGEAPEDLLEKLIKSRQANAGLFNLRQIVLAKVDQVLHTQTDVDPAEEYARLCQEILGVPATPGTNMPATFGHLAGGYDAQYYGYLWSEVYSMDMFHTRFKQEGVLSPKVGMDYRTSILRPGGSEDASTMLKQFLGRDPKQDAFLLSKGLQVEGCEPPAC
T1 sequence (P52888 whole entry): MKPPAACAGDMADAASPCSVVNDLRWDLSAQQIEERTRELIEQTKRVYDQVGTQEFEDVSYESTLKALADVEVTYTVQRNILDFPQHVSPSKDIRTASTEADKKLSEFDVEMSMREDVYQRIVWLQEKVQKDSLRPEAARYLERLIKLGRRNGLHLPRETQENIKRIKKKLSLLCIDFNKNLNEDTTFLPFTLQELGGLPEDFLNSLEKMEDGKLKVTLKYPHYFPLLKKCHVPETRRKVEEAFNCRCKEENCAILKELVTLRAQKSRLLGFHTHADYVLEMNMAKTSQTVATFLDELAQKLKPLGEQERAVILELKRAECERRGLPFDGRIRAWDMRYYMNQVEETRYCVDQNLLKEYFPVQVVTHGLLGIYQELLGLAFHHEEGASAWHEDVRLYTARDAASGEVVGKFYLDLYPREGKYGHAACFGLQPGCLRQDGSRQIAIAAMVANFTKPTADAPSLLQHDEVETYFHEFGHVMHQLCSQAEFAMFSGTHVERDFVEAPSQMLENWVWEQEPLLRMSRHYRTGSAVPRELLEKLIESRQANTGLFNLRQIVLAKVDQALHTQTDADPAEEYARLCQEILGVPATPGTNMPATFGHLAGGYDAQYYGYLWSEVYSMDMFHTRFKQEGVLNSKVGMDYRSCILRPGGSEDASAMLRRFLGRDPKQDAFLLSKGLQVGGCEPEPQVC
T2 sequence (P52888 whole entry): as above
T4 sequence (P52888 whole entry): as above
T6 sequence (P52888 whole entry): as above
T5 sequence (P52888 whole entry): as above

Compound: O=C(O)CN(CCN(CC(=O)O)CC(=O)O)CC(=O)O [EDTA]
- trouase activity inhibition ([1]; 1 mM EDTA): 9 fold

Compound: COc1cccc2c1C(=O)c1c(O)c3c(c(O)c1C2=O)C[C@@](O)(C(=O)CO)C[C@@H]3O[C@H]1C[C@H](NC(=O)[C@H](CC(C)C)NC(=O)[C@H](C)NC(=O)[C@H](CC(C)C)NC(=O)CCNC(=O)CCC(=O)O)[C@H](O)[C@H](C)O1 [Suc-βAla-Leu-Ala-Leu-Dox, succinyl-β-Ala-Leu-Ala-Leu-Dox]
- tolerability of dose regimens [2]: very well tolerated
- survival up to 8 days [3]: all animals survived
- mortality by Day 35 ([4]; 75 mg/kg dose group): 40%
- acute toxicity within 24 hours ([4]; 50, 75 or 100 mg/kg intravenous bolus): no acute toxicity
- body weight loss (of initial weight) ([4]; 75 and 100 mg/kg dose groups): > 20%
- SD-MTD (mg/kg Dox =) ([4]; doxorubicin equivalents): 28 mg/kg Dox =
- toxicity profile compared with doxorubicin ([4]; preliminary observations): lack of evidence of characteristic GI-toxicity, cardiotoxicity and myleosuppression of doxorubicin
- mice with up to 20% weight loss ([5]; 71 mg/kg group, after Day 46): one out of ten
- tolerability of dose regimens ([5]; all dose regimens, 5 doses, one every 7 days): very well tolerated
- tolerability under repeat-dose levels [6]: safe and well-tolerated

Compound: CO[C@@H]1[C@H](OC(=O)/C=C/C=C/C=C/C=C/C(=O)O)CC[C@]2(CO2)[C@H]1[C@@]1(C)O[C@@H]1CC=C(C)C [fumagillin]
- carcinoma cell trouase inhibition ([1]; concentration not given): not

Compound: CCC(C)C(NC(=O)CCC(=O)O)C(=O)N(C)C(C)C(=O)NC(CC(C)C)C(=O)NC1CC(OC2CC(O)(C(=O)CO)Cc3c(O)c4c(c(O)c32)C(=O)c2c(OC)cccc2C4=O)OC(C)C1O (stereo not drawn) [Suc-Ile-NmAla-Leu-Dox]
- Rate of hydrolysis (F1) [7]: 0
- Rate of hydrolysis TOP [8]: 0

Compound: COc1cccc2c1C(=O)c1c(O)c3c(c(O)c1C2=O)CC(O)(C(=O)CO)CC3OC1CC(NC(=O)C(CC(C)C)NC(=O)C(Cc2ccc(O)cc2)NC(=O)C(CC(C)C)NC(=O)CCNC(=O)CCC(=O)O)C(O)C(C)O1 (stereo not drawn) [Suc-βAla-Leu-Tyr-Leu-Dox]
- % hydrolysis/10 hr [9]: 0%
- Fraction hydrolyzed relative to standard [9]: 0

Compound: CC(C)CC(=O)N[C@H](C(=O)N[C@H](C(=O)N[C@@H](CC(C)C)[C@@H](O)CC(=O)N[C@@H](C)C(=O)N[C@@H](CC(C)C)[C@@H](O)CC(=O)O)C(C)C)C(C)C [pepstatin] (Isovaleryl-VV[Sta]A[Sta]-OH)
- trouase activity inhibition ([1]; 1.5 μM): not inhibited

Compound: CC[C@H](C)[C@H](NC(=O)CCC(=O)O)C(=O)N[C@@H](C)C(=O)N[C@@H](CC(C)C)C(=O)N[C@H]1C[C@H](O[C@H]2C[C@](O)(C(=O)CO)Cc3c(O)c4c(c(O)c32)C(=O)c2c(OC)cccc2C4=O)O[C@@H](C)[C@H]1O [Suc-Ile-Ala-Leu-Dox]
- Rate of hydrolysis (F1) [7]: 0
- Rate of hydrolysis TOP [8]: 0

Compound: COc1cccc2c1C(=O)c1c(O)c3c(c(O)c1C2=O)CC(O)(C(=O)CO)CC3OC1CC(NC(=O)C(C)NC(=O)C(C)NC(=O)C(CC(C)C)NC(=O)CCNC(=O)CCC(=O)O)C(O)C(C)O1 (stereo not drawn) [Suc-βAla-Leu-Ala-Ala-Dox]
- cleavage by TOP (presumed) [8]: well cleaved

Compound: CC(C)C[C@H](NC(=O)[C@H]1O[C@@H]1C(=O)O)C(=O)NCCCCN=C(N)N [E-64]
- trouase activity inhibition ([1]; 20 μM E-64): not inhibited

Compound: aminoethylbenzenesulfonylfluoride
- trouase activity inhibition ([1]; 50 μM): not inhibited

Compound: CC(=O)N[C@@H](CC(C)C)C(=O)N[C@@H](CC(C)C)C(=O)N[C@H](C=O)CCCNC(=N)N [leupeptin]
- trouase activity inhibition ([1]; 20 μM leupeptin): not inhibited

Compound: CC[C@H](C)[C@H](NC(=O)CCNC(=O)CCC(=O)O)C(=O)N[C@@H](C)C(=O)N[C@@H](CC(C)C)C(=O)N[C@H]1C[C@H](O[C@H]2C[C@](O)(C(=O)CO)Cc3c(O)c4c(c(O)c32)C(=O)c2c(OC)cccc2C4=O)O[C@@H](C)[C@H]1O [Suc-βAla-Ile-Ala-Leu-Dox]
- Rate of hydrolysis (F1) [7]: 0.025
- Rate of hydrolysis TOP [8]: <0.03

Compound: COc1cccc2c1C(=O)c1c(O)c3c(c(O)c1C2=O)CC(O)(C(=O)CO)CC3OC1CC(NC(=O)C(CC(C)C)NC(=O)C(C)N(C)C(=O)C(CC(C)C)NC(=O)CCC(=O)O)C(O)C(C)O1 (stereo not drawn) [Suc-Leu-NmAla-Leu-Dox]
- Rate of hydrolysis (F1) [7]: 0
- Rate of hydrolysis TOP [8]: 0

Compound: COc1cccc2c1C(=O)c1c(O)c3c(c(O)c1C2=O)C[C@@](O)(C(=O)CO)C[C@@H]3O[C@H]1C[C@H](NC(=O)[C@H](CC(C)C)NC(=O)[C@H](C)NC(=O)[C@H](CC(C)C)NC(=O)CCC(=O)O)[C@H](O)[C@H](C)O1 [Suc-Leu-Ala-Leu-Dox]
- Rate of hydrolysis (F1) [7]: 0.78
- Rate of hydrolysis TOP [8]: 0.67

Compound: c1cnc2c(c1)ccc1cccnc12 [1,10 phenanthroline]
- trouase activity inhibition ([1]; 2 mM 1,10 phenanthroline): 9 fold

Compound: COc1cccc2c1C(=O)c1c(O)c3c(c(O)c1C2=O)C[C@@](O)(C(=O)CO)C[C@@H]3O[C@H]1C[C@H](NC(=O)CNC(=O)[C@H](C)NC(=O)[C@H](CC(C)C)NC(=O)CCC(=O)O)[C@H](O)[C@H](C)O1 [Suc-Leu-Ala-Gly-Dox]
- Rate of hydrolysis (F1) [7]: 0.4
- Rate of hydrolysis TOP [8]: 0.43

Compound: COc1cccc2c1C(=O)c1c(O)c3c(c(O)c1C2=O)C[C@@](O)(C(=O)CO)C[C@@H]3O[C@H]1C[C@H](NC(=O)[C@@H](N)CC(C)C)[C@H](O)[C@H](C)O1 [Leucyl-Doxorubicin]
- IC50 [10]: 0.222 µM

Compound: O[C@H](CS)[C@H](O)CS (racemic) [DTT, dithiothreitol]
- activation of Suc-βAla-Leu-Ala-Leu-Dox hydrolysis [11]: tenfold activation

Compound: N-[1-(RS)-carboxypropyl-Ala-Ala-Phe-p-aminobenzoate [Cpp-AAF-pAB]
- inhibition of Suc-βAla-Leu-Ala-Leu-Dox hydrolysis [12]: completely inhibited

Compound: aprotinin
- trouase activity inhibition ([1]; 4 μg/mL): not inhibited

Compound: COc1cccc2c1C(=O)c1c(O)c3c(c(O)c1C2=O)CC(O)(C(C)=O)CC3OC1CC(NC(=O)C(CC(C)C)NC(=O)C(C)NC(=O)C(CC(C)C)NC(=O)C(C)NC(=O)CCC(=O)O)C(O)C(C)O1 (stereo not drawn) [Suc-Ala-Leu-Ala-Leu-Dnr]
- extent of cleavage versus the P2 β-alanine compound [13]: 0.6 fold
- extent (rate) of cleavage versus the P2 β-alanine compound [14]: 1.3 fold

Compound: CCCNC(=O)[C@H]1O[C@@H]1C(=O)N[C@H](C(=O)N1CCC[C@H]1C(=O)O)[C@@H](C)CC [CA-074]
- trouase activity inhibition ([1]; 1 μM): not inhibited

Compound: COc1cccc2c1C(=O)c1c(O)c3c(c(O)c1C2=O)C[C@@](O)(C(=O)CO)C[C@@H]3O[C@H]1C[C@H](NC(=O)[C@H](CC(C)C)NC(=O)[C@H](C)NC(=O)[C@H](CC(C)C)NC(=O)CCNC(=O)CCCC(=O)O)[C@H](O)[C@H](C)O1 [Gl-βAla-Leu-Ala-Leu-Dox]
- survival up to 8 days [3]: all animals survived

Compound: COc1cccc2c1C(=O)c1c(O)c3c(c(O)c1C2=O)C[C@@](O)(C(=O)CO)C[C@@H]3O[C@H]1C[C@H](NC(=O)[C@H](CC(C)C)NC(=O)[C@H](C)NC(=O)[C@H](CCSC)NC(=O)CCC(=O)O)[C@H](O)[C@H](C)O1 [Suc-Met-Ala-Leu-Dox]
- Rate of hydrolysis (F1) [7]: 0.49
- Rate of hydrolysis TOP [8]: 0.99

Compound: Mcc-Pro-Leu-Gly-Pro-D-Lys(DNP) (Mcc-PLGP-{dK(DNP)}) [quenched fluorescent substrate; Mcc = 7-Methoxycoumarin-3-carboxyl, DNP dinitrophenyl, reference compound]
- Rate of hydrolysis (F1) [7]: 1.5
- Rate of hydrolysis TOP [8]: 1.1

Compound: COc1cccc2c1C(=O)c1c(O)c3c(c(O)c1C2=O)CC(O)(C(=O)CO)CC3OC1CC(NC(=O)CNC(=O)C(C)NC(=O)C(CC(C)C)NC(=O)CCNC(=O)CCC(=O)O)C(O)C(C)O1 (stereo not drawn) [Suc-βAla-Leu-Ala-Gly-Dox]
- cleavage by TOP [8]: well cleaved
